From US20230398102A1 (Bausch Health Ireland Limited, priority 2020, published 2023)

Assays:
Format in all cases: physicochemical
[1] = Compatibility of individual excipients with hard gelatin capsule shells; conditions: Hard Gel Capsules
Protocol: (§1) The physical compatibility of individual excipients with gelatin shell matrix was investigated. For hard gelatin capsules, solvent was filled into hard capsules and placed in scintillation vials. For soft gelatin capsules, each capsule was dipped into the excipient and then placed in scintillation vials. The vials were then subjected to various temperature conditions for up to 4 weeks. Capsules were then evaluated for physical changes (softening or hardening of capsule shell).
(§2) Hard gel capsules were purchased from VWR (catalogue number 70102) with a volume of 0.68 mL, diameter of 6.63 mm, a length of 19.0 mm and size 1. Soft gel capsules were Advil liquid-gels, 200 mg strength, 80 counts.

[2] = Excipient compatibility: rifaximin solutions stored at various temperatures, chemical purity by HPLC; conditions: rifaximin in named solvent
[3] = Compatibility of individual excipients with soft gelatin capsule shells; conditions: Soft Gel Capsules
Protocol: as §1, §2

| Physical change (Yes or No) ([1]; T 2 weeks, 25° C.) | Physical change (Yes or No) ([1]; T 2 weeks, 40° C.) | Physical change (Yes or No) ([1]; T 4 weeks, 25° C.) | Physical change (Yes or No) ([1]; T 4 weeks, 40° C.) | Rifaximin % Label Claim (LC) ([2]; T0) | Rifaximin % Label Claim (LC) ([2]; T 2 weeks, 25° C.) | Rifaximin % Label Claim (LC) ([2]; T 2 weeks, 40° C.) | Rifaximin % Label Claim (LC) ([2]; T 2 weeks, 50° C.) | Rifaximin % Label Claim (LC) ([2]; T 4 weeks, 25° C.) | Rifaximin % Label Claim (LC) ([2]; T 4 weeks, 40° C.) | Rifaximin % Label Claim (LC) ([2]; T 4 weeks, 50° C.) | Physical change (Yes or No) ([1]; T 2 weeks, 50° C.) | Physical change (Yes or No) ([1]; T 4 weeks, 50° C.) | SMILES | Physical change (Yes or No) ([3]; T 2 weeks, 25° C.) | Physical change (Yes or No) ([3]; T 2 weeks, 40° C.) | Physical change (Yes or No) ([3]; T 2 weeks, 50° C.) | Physical change (Yes or No) ([3]; T 4 weeks, 25° C.) | Physical change (Yes or No) ([3]; T 4 weeks, 40° C.) | Physical change (Yes or No) ([3]; T 4 weeks, 50° C.) |
| --- | --- | --- | --- | --- | --- | --- | --- | --- | --- | --- | --- | --- | --- | --- | --- | --- | --- | --- | --- |
|  |  |  |  | 97.6 % Label Claim (LC) | 95.3 % Label Claim (LC) | 71.3 % Label Claim (LC) | 50.3 % Label Claim (LC) | 95.1 % Label Claim (LC) | 64.8 % Label Claim (LC) | 30.4 % Label Claim (LC) |  |  | CC(C)OC(=O)CCCCC(=O)OC(C)C [Diisopropyl adipate] |  |  |  |  |  |  |
|  |  |  |  | 97.3 % Label Claim (LC) | 96.1 % Label Claim (LC) | 89.3 % Label Claim (LC) | 81.5 % Label Claim (LC) | 95.4 % Label Claim (LC) | 82.7 % Label Claim (LC) | 74.2 % Label Claim (LC) |  |  | CCOCCOCCO [diethylene glycol monoethyl ether] |  |  |  |  |  |  |
| No | No | No | No | 102.7 % Label Claim (LC) | 102.1 % Label Claim (LC) | 101.7 % Label Claim (LC) | 101.7 % Label Claim (LC) | 101.1 % Label Claim (LC) | 98.8 % Label Claim (LC) | 99.8 % Label Claim (LC) |  |  | CCOC(=O)CCCCCCCCC(=O)OCC [Diethyl sebacate] |  |  |  |  |  |  |
| No | No | No | No | 102.7 % Label Claim (LC) | 98.7 % Label Claim (LC) | 100.0 % Label Claim (LC) | 97.4 % Label Claim (LC) | 100.6 % Label Claim (LC) | 100.0 % Label Claim (LC) | 92.9 % Label Claim (LC) | No | No | CCCCC/C=C\C/C=C\CCCCCCCC(=O)OCC(O)CO (stereo not shown) [Glyceryl monolinoleate] | No | No | No | No | No | No |

More lines, now with the values behind:

| SMILES | Physical change (Yes or No) ([1]; T 2 weeks, 25° C.) | Physical change (Yes or No) ([1]; T 2 weeks, 40° C.) | Physical change (Yes or No) ([1]; T 4 weeks, 25° C.) | Physical change (Yes or No) ([1]; T 4 weeks, 40° C.) | Rifaximin % Label Claim (LC) ([2]; T0) | Rifaximin % Label Claim (LC) ([2]; T 2 weeks, 25° C.) | Rifaximin % Label Claim (LC) ([2]; T 2 weeks, 40° C.) | Rifaximin % Label Claim (LC) ([2]; T 2 weeks, 50° C.) | Rifaximin % Label Claim (LC) ([2]; T 4 weeks, 25° C.) | Rifaximin % Label Claim (LC) ([2]; T 4 weeks, 40° C.) | Rifaximin % Label Claim (LC) ([2]; T 4 weeks, 50° C.) | Physical change (Yes or No) ([1]; T 2 weeks, 50° C.) | Physical change (Yes or No) ([1]; T 4 weeks, 50° C.) | Physical change (Yes or No) ([3]; T 2 weeks, 25° C.) | Physical change (Yes or No) ([3]; T 2 weeks, 40° C.) | Physical change (Yes or No) ([3]; T 2 weeks, 50° C.) | Physical change (Yes or No) ([3]; T 4 weeks, 25° C.) | Physical change (Yes or No) ([3]; T 4 weeks, 40° C.) | Physical change (Yes or No) ([3]; T 4 weeks, 50° C.) |
| --- | --- | --- | --- | --- | --- | --- | --- | --- | --- | --- | --- | --- | --- | --- | --- | --- | --- | --- | --- |
| OCc1ccccc1 [Benzyl alcohol] | Yes | Yes | Yes | Yes | 99.3 % Label Claim (LC) | 99.8 % Label Claim (LC) | 96.3 % Label Claim (LC) | 96.9 % Label Claim (LC) | 98.2 % Label Claim (LC) | 94.0 % Label Claim (LC) | 93.0 % Label Claim (LC) |  |  |  |  |  |  |  |  |
| OCCOCCOCCO [Triethylene glycol] | Yes | Yes | Yes | Yes | 97.5 % Label Claim (LC) | 98.3 % Label Claim (LC) | 96.7 % Label Claim (LC) | 95.6 % Label Claim (LC) | 97.0 % Label Claim (LC) | 95.0 % Label Claim (LC) | 92.5 % Label Claim (LC) |  |  |  |  |  |  |  |  |
| CCCCCCCC/C=C\CCCCCCCCO [Oleyl alcohol] | No | No | No | No | 98.7 % Label Claim (LC) | 96.3 % Label Claim (LC) | 97.1 % Label Claim (LC) | 95.2 % Label Claim (LC) | 96.9 % Label Claim (LC) | 95.0 % Label Claim (LC) | 91.8 % Label Claim (LC) |  |  |  |  |  |  |  |  |
| CCCCCCCC/C=C\CCCCCCCC(=O)OCC(O)CO (stereo not shown) [Glyceryl monooleate (Type 40), Glyceryl monooleate] | No | No | No | No | 92.7 % Label Claim (LC) | 96.4 % Label Claim (LC) | 58.3 % Label Claim (LC) | 48.9 % Label Claim (LC) | 95.0 % Label Claim (LC) | 59.0 % Label Claim (LC) | 41.7 % Label Claim (LC) | No | No | No | Yes | Yes | No | Yes | Yes |
| CCOCCOCCO [Diethylene glycol monoethyl ether] | No | No | No | No |  |  |  |  |  |  |  | No | No |  |  |  |  |  |  |
| CC(O)CO (stereo not shown) [Propylene glycol] |  |  |  |  | 97.9 % Label Claim (LC) | 96.9 % Label Claim (LC) | 97.0 % Label Claim (LC) | 95.7 % Label Claim (LC) | 96.2 % Label Claim (LC) | 95.6 % Label Claim (LC) | 98.6 % Label Claim (LC) |  |  |  |  |  |  |  |  |
